Reference: US6498125B2, “Pyridine ketones useful as herbicides” (Syngenta Participations AG, priority 1998, dated 2002)

tested on: Monocotyledonous and dicotyledonous test plants; assay: Example B1: pre-emergence herbicidal action, 2 kg of AS/ha; format: in vivo; details: test plant Avena, 3 weeks, scale 1-9
Protocol: Monocotyledonous and dicotyledonous test plants are sown in standard soil in plastic pots. Immediately after sowing, the test substances are sprayed on (500 l of water/ha) as an aqueous suspension (prepared from a 25% wettable powder (Example F3, b) according to WO 97/34485) or emulsion (prepared from a 25% emulsion concentrate (Example F1, c)), corresponding to a dosage of 2 kg of AS/ha. The test plants are then grown under optimum conditions in a greenhouse. After a test period of 3 weeks, the test is evaluated with a nine-level scale of ratings (1=complete damage, 9=no effect). Ratings of 1 to 4 (in particular 1 to 3) mean good to very good herbicidal action.

Row | SMILES | pre-emergence action rating, Avena
1 | Cc1nc(C(F)(F)F)ccc1C(=O)C1=C(Sc2ccccc2)C2CCC(C2)C1=O (centres unmarked) [Compound 1.381] | 4
2 | CC(=O)OC1=C(C(=O)c2ccc(C(F)(F)F)nc2C)C(=O)C2CCC1C2 (centres unmarked) [Compound 1.401] | 2
3 | Cc1nc(C(F)(F)F)ccc1C(=O)C1=C(OC(=O)c2ccccc2)C2CCC(C2)C1=O (centres unmarked) [Compound 1.402] | 2
4 | Cc1nc(C(F)(F)F)ccc1C(=O)C1=C(OC(=O)C2CC2)C2CCC(C2)C1=O (centres unmarked) [Compound 1.403] | 2

same assay, conditions: test plant Cyperus, 3 weeks, scale 1-9

Row | SMILES | pre-emergence action rating, Cyperus
5 | Cc1nc(C(F)(F)F)ccc1C(=O)C1=C(Sc2ccccc2)C2CCC(C2)C1=O (centres unmarked) [Compound 1.381] | 1
6 | CC(=O)OC1=C(C(=O)c2ccc(C(F)(F)F)nc2C)C(=O)C2CCC1C2 (centres unmarked) [Compound 1.401] | 1
7 | Cc1nc(C(F)(F)F)ccc1C(=O)C1=C(OC(=O)c2ccccc2)C2CCC(C2)C1=O (centres unmarked) [Compound 1.402] | 1
8 | Cc1nc(C(F)(F)F)ccc1C(=O)C1=C(OC(=O)C2CC2)C2CCC(C2)C1=O (centres unmarked) [Compound 1.403] | 1

same assay, conditions: test plant Setaria, 3 weeks, scale 1-9

Row | SMILES | pre-emergence action rating, Setaria
9 | Cc1nc(C(F)(F)F)ccc1C(=O)C1=C(Sc2ccccc2)C2CCC(C2)C1=O (centres unmarked) [Compound 1.381] | 2
10 | CC(=O)OC1=C(C(=O)c2ccc(C(F)(F)F)nc2C)C(=O)C2CCC1C2 (centres unmarked) [Compound 1.401] | 1
11 | Cc1nc(C(F)(F)F)ccc1C(=O)C1=C(OC(=O)c2ccccc2)C2CCC(C2)C1=O (centres unmarked) [Compound 1.402] | 1
12 | Cc1nc(C(F)(F)F)ccc1C(=O)C1=C(OC(=O)C2CC2)C2CCC(C2)C1=O (centres unmarked) [Compound 1.403] | 1

same assay, conditions: test plant Sinapis, 3 weeks, scale 1-9

Row | SMILES | pre-emergence action rating, Sinapis
13 | Cc1nc(C(F)(F)F)ccc1C(=O)C1=C(Sc2ccccc2)C2CCC(C2)C1=O (centres unmarked) [Compound 1.381] | 2
14 | CC(=O)OC1=C(C(=O)c2ccc(C(F)(F)F)nc2C)C(=O)C2CCC1C2 (centres unmarked) [Compound 1.401] | 2
15 | Cc1nc(C(F)(F)F)ccc1C(=O)C1=C(OC(=O)c2ccccc2)C2CCC(C2)C1=O (centres unmarked) [Compound 1.402] | 2
16 | Cc1nc(C(F)(F)F)ccc1C(=O)C1=C(OC(=O)C2CC2)C2CCC(C2)C1=O (centres unmarked) [Compound 1.403] | 1

same assay, conditions: test plant Solanum, 3 weeks, scale 1-9

Row | SMILES | pre-emergence action rating, Solanum
17 | Cc1nc(C(F)(F)F)ccc1C(=O)C1=C(Sc2ccccc2)C2CCC(C2)C1=O (centres unmarked) [Compound 1.381] | 1
18 | CC(=O)OC1=C(C(=O)c2ccc(C(F)(F)F)nc2C)C(=O)C2CCC1C2 (centres unmarked) [Compound 1.401] | 1
19 | Cc1nc(C(F)(F)F)ccc1C(=O)C1=C(OC(=O)c2ccccc2)C2CCC(C2)C1=O (centres unmarked) [Compound 1.402] | 1
20 | Cc1nc(C(F)(F)F)ccc1C(=O)C1=C(OC(=O)C2CC2)C2CCC(C2)C1=O (centres unmarked) [Compound 1.403] | 1

same assay, conditions: test plant Stellaria, 3 weeks, scale 1-9

Row | SMILES | pre-emergence action rating, Stellaria
21 | Cc1nc(C(F)(F)F)ccc1C(=O)C1=C(Sc2ccccc2)C2CCC(C2)C1=O (centres unmarked) [Compound 1.381] | 1
22 | CC(=O)OC1=C(C(=O)c2ccc(C(F)(F)F)nc2C)C(=O)C2CCC1C2 (centres unmarked) [Compound 1.401] | 2
23 | Cc1nc(C(F)(F)F)ccc1C(=O)C1=C(OC(=O)c2ccccc2)C2CCC(C2)C1=O (centres unmarked) [Compound 1.402] | 2
24 | Cc1nc(C(F)(F)F)ccc1C(=O)C1=C(OC(=O)C2CC2)C2CCC(C2)C1=O (centres unmarked) [Compound 1.403] | 2

tested on: Monocotyledonous and dicotyledonous test plants; assay: Example B2: post-emergence herbicidal action, 2 kg of AS/ha; format: in vivo; parameters: key: 1 = complete damage, 9 = no effect; details: test plant Avena, 4- to 6-leaf stage, about 18 days, scale 1-9
Protocol: Monocotyledonous and dicotyledonous test plants are grown in plastic pots with standard soil in a greenhouse and, in the 4- to 6-leaf stage, are sprayed with an aqueous suspension of the test substances of the formula 1, prepared from a 25% wettable powder (Example F3, b) according to WO 97134485) or with an emulsion of the test substances of the formula I, prepared from a 25% emulsion concentrate (Example F1, c) according to WO 97/34485), corresponding to a dosage of 2 kg of AS/ha (500 l of water/ha). The test plants are then grown further under optimum conditions in a greenhouse. After a test period of about 18 days, the test is evaluated with a nine-level scale of rating (1=complete damage, 9=no effect). Ratings of 1 to 4 (in particular 1 to 3) mean good to very good herbicidal action. In this test, the compounds of the formula I show strong herbicidal action.

Row | SMILES | post-emergence action rating, Avena
25 | Cc1nc(C(F)(F)F)ccc1C(=O)C1=C(Sc2ccccc2)C2CCC(C2)C1=O (centres unmarked) [Compound 1.381] | 2
26 | CC(=O)OC1=C(C(=O)c2ccc(C(F)(F)F)nc2C)C(=O)C2CCC1C2 (centres unmarked) [Compound 1.401] | 2
27 | Cc1nc(C(F)(F)F)ccc1C(=O)C1=C(OC(=O)c2ccccc2)C2CCC(C2)C1=O (centres unmarked) [Compound 1.402] | 2
28 | Cc1nc(C(F)(F)F)ccc1C(=O)C1=C(OC(=O)C2CC2)C2CCC(C2)C1=O (centres unmarked) [Compound 1.403] | 2

same assay, conditions: test plant Setaria, 4- to 6-leaf stage, about 18 days, scale 1-9

Row | SMILES | post-emergence action rating, Setaria
29 | Cc1nc(C(F)(F)F)ccc1C(=O)C1=C(Sc2ccccc2)C2CCC(C2)C1=O (centres unmarked) [Compound 1.381] | 2
30 | CC(=O)OC1=C(C(=O)c2ccc(C(F)(F)F)nc2C)C(=O)C2CCC1C2 (centres unmarked) [Compound 1.401] | 2
31 | Cc1nc(C(F)(F)F)ccc1C(=O)C1=C(OC(=O)c2ccccc2)C2CCC(C2)C1=O (centres unmarked) [Compound 1.402] | 2
32 | Cc1nc(C(F)(F)F)ccc1C(=O)C1=C(OC(=O)C2CC2)C2CCC(C2)C1=O (centres unmarked) [Compound 1.403] | 2

same assay, conditions: test plant Sinapis, 4- to 6-leaf stage, about 18 days, scale 1-9

Row | SMILES | post-emergence action rating, Sinapis
33 | Cc1nc(C(F)(F)F)ccc1C(=O)C1=C(Sc2ccccc2)C2CCC(C2)C1=O (centres unmarked) [Compound 1.381] | 2
34 | CC(=O)OC1=C(C(=O)c2ccc(C(F)(F)F)nc2C)C(=O)C2CCC1C2 (centres unmarked) [Compound 1.401] | 2
35 | Cc1nc(C(F)(F)F)ccc1C(=O)C1=C(OC(=O)c2ccccc2)C2CCC(C2)C1=O (centres unmarked) [Compound 1.402] | 1
36 | Cc1nc(C(F)(F)F)ccc1C(=O)C1=C(OC(=O)C2CC2)C2CCC(C2)C1=O (centres unmarked) [Compound 1.403] | 1

same assay, conditions: test plant Solanum, 4- to 6-leaf stage, about 18 days, scale 1-9

Row | SMILES | post-emergence action rating, Solanum
37 | Cc1nc(C(F)(F)F)ccc1C(=O)C1=C(Sc2ccccc2)C2CCC(C2)C1=O (centres unmarked) [Compound 1.381] | 2
38 | CC(=O)OC1=C(C(=O)c2ccc(C(F)(F)F)nc2C)C(=O)C2CCC1C2 (centres unmarked) [Compound 1.401] | 2
39 | Cc1nc(C(F)(F)F)ccc1C(=O)C1=C(OC(=O)c2ccccc2)C2CCC(C2)C1=O (centres unmarked) [Compound 1.402] | 2
40 | Cc1nc(C(F)(F)F)ccc1C(=O)C1=C(OC(=O)C2CC2)C2CCC(C2)C1=O (centres unmarked) [Compound 1.403] | 2

same assay, conditions: test plant Stellaria, 4- to 6-leaf stage, about 18 days, scale 1-9

Row | SMILES | post-emergence action rating, Stellaria
41 | Cc1nc(C(F)(F)F)ccc1C(=O)C1=C(Sc2ccccc2)C2CCC(C2)C1=O (centres unmarked) [Compound 1.381] | 2
42 | CC(=O)OC1=C(C(=O)c2ccc(C(F)(F)F)nc2C)C(=O)C2CCC1C2 (centres unmarked) [Compound 1.401] | 2
43 | Cc1nc(C(F)(F)F)ccc1C(=O)C1=C(OC(=O)c2ccccc2)C2CCC(C2)C1=O (centres unmarked) [Compound 1.402] | 2
44 | Cc1nc(C(F)(F)F)ccc1C(=O)C1=C(OC(=O)C2CC2)C2CCC(C2)C1=O (centres unmarked) [Compound 1.403] | 2
